We go through 12 molecules from patent US11919901B2 (Syndax Pharmaceuticals, Inc., priority 2021, dated 2024).

The target in one data set is hERG (Homo sapiens (Human), UniProt Q12809). Briefly: Patch clamp assay (hERG tail currents, whole-cell). The following applies: hERG transfected HEK 293 cells; for hERG % Remaining 10 μM: 10 μM compound; for hERG % Remaining 30 μM: 30 μM compound. The data set is classed as cell-based. Background: In patch-clamp work, channel activity is measured electrically.
The target of the next data set is Menin-MLL (Homo sapiens (Human), UniProt O00255). Briefly: Determination of binding constants (Ki) to Menin-MLL (HTRF). Conditions: HTRF, 0.25 nM H-FL-Menin, 3.2 nM FITC-MLL-4-43, 24 hr incubation; for Ki: read-out: Menin-MLL Ki HTRF Assay: Ki.

Some results are limits rather than exact numbers.

Menin-MLL, sequence (O00255 whole entry): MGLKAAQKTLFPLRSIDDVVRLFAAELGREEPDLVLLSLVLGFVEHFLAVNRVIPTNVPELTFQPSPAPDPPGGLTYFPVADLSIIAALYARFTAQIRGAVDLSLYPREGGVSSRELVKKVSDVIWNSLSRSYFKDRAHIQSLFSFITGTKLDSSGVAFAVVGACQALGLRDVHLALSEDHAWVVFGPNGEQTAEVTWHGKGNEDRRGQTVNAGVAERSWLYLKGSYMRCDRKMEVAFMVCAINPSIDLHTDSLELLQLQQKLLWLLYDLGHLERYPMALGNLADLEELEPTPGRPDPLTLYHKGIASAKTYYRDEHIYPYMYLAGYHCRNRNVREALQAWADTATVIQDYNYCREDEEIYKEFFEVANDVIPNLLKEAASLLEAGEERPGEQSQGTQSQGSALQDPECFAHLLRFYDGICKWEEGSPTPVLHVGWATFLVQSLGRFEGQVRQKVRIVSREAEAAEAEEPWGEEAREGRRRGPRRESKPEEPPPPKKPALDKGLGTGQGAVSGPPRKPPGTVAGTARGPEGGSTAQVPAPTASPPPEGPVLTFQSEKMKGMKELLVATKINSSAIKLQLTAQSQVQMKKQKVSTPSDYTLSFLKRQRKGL
hERG, sequence (Q12809 whole entry): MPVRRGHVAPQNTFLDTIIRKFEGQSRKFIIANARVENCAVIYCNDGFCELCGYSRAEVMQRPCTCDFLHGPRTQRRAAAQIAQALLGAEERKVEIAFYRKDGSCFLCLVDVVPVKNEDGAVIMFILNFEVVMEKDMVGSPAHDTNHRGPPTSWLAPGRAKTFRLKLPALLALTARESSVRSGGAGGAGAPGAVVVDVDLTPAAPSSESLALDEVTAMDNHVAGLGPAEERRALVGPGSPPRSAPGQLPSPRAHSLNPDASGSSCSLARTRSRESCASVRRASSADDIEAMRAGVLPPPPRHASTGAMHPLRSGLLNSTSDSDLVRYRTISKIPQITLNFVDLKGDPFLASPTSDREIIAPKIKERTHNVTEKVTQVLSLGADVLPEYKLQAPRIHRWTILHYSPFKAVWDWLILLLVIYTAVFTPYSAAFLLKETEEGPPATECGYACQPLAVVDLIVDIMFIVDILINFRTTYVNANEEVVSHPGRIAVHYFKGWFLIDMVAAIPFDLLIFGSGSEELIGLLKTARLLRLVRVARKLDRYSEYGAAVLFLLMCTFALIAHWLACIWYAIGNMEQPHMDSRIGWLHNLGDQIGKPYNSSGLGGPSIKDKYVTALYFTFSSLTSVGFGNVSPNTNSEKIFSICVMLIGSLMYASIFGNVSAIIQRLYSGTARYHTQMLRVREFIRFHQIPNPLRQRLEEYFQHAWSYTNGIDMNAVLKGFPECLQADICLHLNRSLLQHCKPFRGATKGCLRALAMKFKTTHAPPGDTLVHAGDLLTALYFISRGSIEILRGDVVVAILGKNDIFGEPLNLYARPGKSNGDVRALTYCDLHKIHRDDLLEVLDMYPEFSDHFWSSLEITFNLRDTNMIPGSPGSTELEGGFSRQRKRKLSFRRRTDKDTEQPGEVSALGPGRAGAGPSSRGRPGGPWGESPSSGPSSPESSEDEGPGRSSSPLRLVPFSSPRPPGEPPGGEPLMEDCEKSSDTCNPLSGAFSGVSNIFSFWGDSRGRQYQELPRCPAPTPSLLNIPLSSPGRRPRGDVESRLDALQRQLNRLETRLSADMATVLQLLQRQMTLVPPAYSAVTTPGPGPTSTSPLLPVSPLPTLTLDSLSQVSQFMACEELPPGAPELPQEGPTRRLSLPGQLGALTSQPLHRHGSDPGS

Usually EC50 stands for the concentration that produces a half-maximal response. Read a low EC50 as an effect from little substance. In general, Ki refers to a dissociation constant, usually derived from enzyme kinetics or from competition with a known ligand. Consider `CC(C)N(C(=O)c1cc(F)ccc1Oc1cncnc1N1CC2(CCN(C[C@@H]3CC[C@@H](NS(=O)(=O)N(C)C)CO3)CC2)C1)C1CC(F)(F)C1` [Compound 113, N-(3,3-Difluorocyclobutyl)-2-((4-(7-(((2S,5R)-5-((N,N-dimethylsulfamoyl)amino)tetrahydro-2H-pyran-2-yl)methyl)-2,7-diazaspiro[3.5]nonan-2-yl)pyrimidin-5-yl)oxy)-5-fluoro-N-isopropylbenzamide], for which, on hERG, the “hERG % Remaining 10 μM” value is reported as “+++ (“+++” means ≥66%)”; the “hERG % Remaining 30 μM” value is “++ (“++” means ≥33% and <66%)”. Further, on Menin-MLL, the EC50 is < 50 nM and the Ki was < 1 nM.
With `CCN(CC)S(=O)(=O)N[C@@H]1CC[C@@H](CN2CCC3(CC2)CN(c2ncncc2Oc2ccc(F)cc2C(=O)N(C(C)C)C2CC(F)(F)C2)C3)OC1` [Compound 114, 2-((4-(7-(((2S,5R)-5-((N,N-Diethylsulfamoyl)amino)tetrahydro-2H-pyran-2-yl)methyl)-2,7-diazaspiro[3.5]nonan-2-yl)pyrimidin-5-yl)oxy)-N-(3,3-difluorocyclobutyl)-5-fluoro-N-isopropylbenzamide], at hERG, the “hERG % Remaining 10 μM” value was “+ (“+” means <33%)” and the “hERG % Remaining 30 μM” value is reported as “+ (“+” means <33%)”. Moreover, at Menin-MLL, the EC50 was < 50 nM and the Ki was < 1 nM.
Regarding `CC(C)N(C(=O)c1cc(F)ccc1Oc1cncnc1N1CC2(CCN(C[C@@H]3CC[C@@H](NS(=O)(=O)N4CCC4)CO3)CC2)C1)C1CC(F)(F)C1` [Compound 118, 2-((4-(7-(((2S,5R)-5-(Azetidine-1-sulfonamido)tetrahydro-2H-pyran-2-yl)methyl)-2,7-diazaspiro[3.5]nonan-2-yl)pyrimidin-5-yl)oxy)-N-(3,3-difluorocyclobutyl)-5-fluoro-N-isopropylbenzamide], at hERG, the “hERG % Remaining 10 μM” value is “++ (“++” means ≥33% and <66%)”; the “hERG % Remaining 30 μM” value is “+ (“+” means <33%)”. The Ki on Menin-MLL is < 1 nM.
`CC(C)N(C(=O)c1cc(F)ccc1Oc1cncnc1N1CC2(CCN(C[C@@H]3CC[C@@H](NS(=O)(=O)N(C)C(C)C)CO3)CC2)C1)C1CC(F)(F)C1` [Compound 119, N-(3,3-Difluorocyclobutyl)-5-fluoro-N-isopropyl-2-((4-(7-(((2S,5R)-5-((N-isopropyl-N-methylsulfamoyl)amino)tetrahydro-2H-pyran-2-yl)methyl)-2,7-diazaspiro[3.5]nonan-2-yl)pyrimidin-5-yl)oxy)benzamide]: the “hERG % Remaining 30 μM” value at hERG is “+ (“+” means <33%)”. For the same molecule, the Ki on Menin-MLL is < 1 nM.
Take `C[C@@H]1COC[C@@H](C)N1C(=O)c1cc(F)ccc1Oc1cncnc1N1CC2(CCN(C[C@@H]3CC[C@@H](NS(=O)(=O)c4ccccc4)CO3)CC2)C1` [Compound 120, N-((3R,6S)-6-((2-(5-(2-((3R,5R)-3,5-Dimethylmorpholine-4-carbonyl)-4-fluorophenoxy)pyrimidin-4-yl)-2,7-diazaspiro[3.5]nonan-7-yl)methyl)tetrahydro-2H-pyran-3-yl)benzenesulfonamide]: on hERG, the “hERG % Remaining 10 μM” value is given as “+++ (“+++” means ≥66%)”; the “hERG % Remaining 30 μM” value was “++ (“++” means ≥33% and <66%)”. In addition, at Menin-MLL, the EC50 is < 50 nM and the Ki was < 1 nM.
Take `C[C@@H]1COC[C@@H](C)N1C(=O)c1cc(F)ccc1Oc1cncnc1N1CC2(CCN(C[C@@H]3CC[C@@H](NS(=O)(=O)N4CCC4)CO3)CC2)C1` [Compound 121, N-((3R,6S)-6-((2-(5-(2-((3R,5R)-3,5-Dimethylmorpholine-4-carbonyl)-4-fluorophenoxy)pyrimidin-4-yl)-2,7-diazaspiro[3.5]nonan-7-yl)methyl)tetrahydro-2H-pyran-3-yl)azetidine-1-sulfonamide]: at hERG, the “hERG % Remaining 30 μM” value is “+++ (“+++” means ≥66%)”. In addition, on Menin-MLL, the Ki was < 1 nM.
In general, IC50 refers to the concentration that gives 50% inhibition. As to `Cc1nc(S(=O)(=O)N[C@@H]2CC[C@@H](CN3CCC4(CC3)CN(c3ncncc3Oc3ccc(F)cc3C(=O)N3[C@H](C)COC[C@H]3C)C4)OC2)cs1` [Compound 122, N-((3R,6S)-6-((2-(5-(2-((3R,5R)-3,5-Dimethylmorpholine-4-carbonyl)-4-fluorophenoxy)pyrimidin-4-yl)-2,7-diazaspiro[3.5]nonan-7-yl)methyl)tetrahydro-2H-pyran-3-yl)-2-methylthiazole-4-sulfonamide], at hERG, the “hERG % Remaining 30 μM” value was “+++ (“+++” means ≥66%)” and the IC50 was ≥ 50000 nM. The Ki at Menin-MLL is < 1 nM.
As for `C[C@@H]1COC[C@@H](C)N1C(=O)c1cc(F)ccc1Oc1cncnc1N1CC2(CCN(C[C@@H]3CC[C@@H](NS(=O)(=O)N(C)C)CO3)CC2)C1` [Compound 123, {[(3R,6S)-6-{[2-(5-{2-[(3R,5R)-3,5-Dimethylmorpholine-4-carbonyl]-4-fluorophenoxy}pyrimidin-4-yl)-2,7-diazaspiro[3.5]nonan-7-yl]methyl}oxan-3-yl]sulfamoyl}dimethylamine], the “hERG % Remaining 30 μM” value on hERG was “+++ (“+++” means ≥66%)”. For the same molecule, the Ki at Menin-MLL was < 1 nM.
In the case of `CCNS(=O)(=O)N[C@@H]1CC[C@@H](CN2CCC3(CC2)CN(c2ncncc2Oc2ccc(F)cc2C(=O)N2[C@H](C)COC[C@H]2C)C3)OC1` [Compound 125, {[(3R,6S)-6-{[2-(5-{2-[(3R,5R)-3,5-Dimethylmorpholine-4-carbonyl]-4-fluorophenoxy}pyrimidin-4-yl)-2,7-diazaspiro[3.5]nonan-7-yl]methyl}oxan-3-yl]sulfamoyl}(ethyl)amine], the “hERG % Remaining 30 μM” value at hERG is “+++ (“+++” means ≥66%)”. For the same molecule, the Ki at Menin-MLL is < 1 nM.
Take `C[C@@H]1COC[C@H](C)N1C(=O)c1cc(F)ccc1Oc1cncnc1N1CC2(CCN(C[C@@H]3CC[C@@H](NS(=O)(=O)c4ccccc4)CO3)CC2)C1` [Compound 130, N-((3R,6S)-6-((2-(5-(2-((3S,5R)-3,5-Dimethylmorpholine-4-carbonyl)-4-fluorophenoxy)pyrimidin-4-yl)-2,7-diazaspiro[3.5]nonan-7-yl)methyl)tetrahydro-2H-pyran-3-yl)benzenesulfonamide]: on hERG, the “hERG % Remaining 10 μM” value is on record as “+++ (“+++” means ≥66%)”; the “hERG % Remaining 30 μM” value was “++ (“++” means ≥33% and <66%)”. Besides, on Menin-MLL, the half-maximal effective concentration (EC50) is < 50 nM and the Ki is < 1 nM.
With `CC(C)N(C(=O)c1cc(F)ccc1Oc1cncnc1N1CC2(CCN(C[C@@H]3CC[C@@H](NS(=O)(=O)N4CCC4)CO3)CC2)C1)[C@H]1CCOC1` [Compound 134, 2-((4-(7-(((2S,5R)-5-(Azetidine-1-sulfonamido)tetrahydro-2H-pyran-2-yl)methyl)-2,7-diazaspiro[3.5]nonan-2-yl)pyrimidin-5-yl)oxy)-5-fluoro-N-isopropyl-N-((S)-tetrahydrofuran-3-yl)benzamide], at hERG, the “hERG % Remaining 30 μM” value was “+++ (“+++” means ≥66%)”. Further, the Ki on Menin-MLL is < 1 nM.
On to `CC(C)N(CCC#N)C(=O)c1cc(F)ccc1Oc1cncnc1N1CC2(CCN(C[C@@H]3CC[C@@H](NS(=O)(=O)c4ccccc4)CO3)CC2)C1` [Compound 136, N-(2-Cyanoethyl)-5-fluoro-N-isopropyl-2-((4-(7-(((2S,5R)-5-(phenylsulfonamido)tetrahydro-2H-pyran-2-yl)methyl)-2,7-diazaspiro[3.5]nonan-2-yl)pyrimidin-5-yl)oxy)benzamide], for which, at hERG, the “hERG % Remaining 10 μM” value is “+++ (“+++” means ≥66%)” and the “hERG % Remaining 30 μM” value is “+ (“+” means <33%)”. Moreover, on Menin-MLL, the EC50 is < 50 nM and the Ki is < 1 nM.
